Here are results for two compounds from paper PMC7940618, “Specific inhibition of the Survivin–CRM1 interaction by peptide-modified molecular tweezers” (Nature Communications, 2021).

For one assay, the target named is T1, Survivin–CRM1 complex (Homo sapiens, UniProt O15392).
T1 construct: expressed in transfected cells; host or cells: 293T cells (Survivin142-HA); E. coli soluBL21 (GST-CRM1, RanQ69L)
The assay is described as follows: Pull-down with 293T lysate (Survivin142-HA), GST-CRM1 bait, RanQ69L, dGTP. The following applies: pull-down, tweezer 0.01 to 200 µM, 293T lysate. The assay is classed as binding. How it is done:
We next investigated whether tweezers inhibit the Survivin–CRM1 complex formation in vitro. The effects of the unmodified and peptide-linked tweezers were analyzed via pull-down experiments with 293T lysates containing overexpressed HA-tagged Survivin142, recombinant GST-CRM1 as bait protein, and tweezers (Fig. 6). The parent and ELTL-linked tweezer required 10–50 µM to disrupt the Survivin–CRM1 complex. […] In order to provide experimental evidence for the sequence selectivity of the TW-ELTLGEFL ligand, a scrambled analog was synthesized and clicked to the tweezer, resulting in the hybrid molecule TW-LFEEGLLT (SI1, SI2, and SI10). […] Instead, the slight chemical shift perturbations might be due to the spatial proximity of the peptide moiety to the anchoring residue. All those results strongly indicate that the additional binding energy from the NES interface was lost due to scrambling and thus point toward specific recognition as the reason for increased selectivity and interference with the Survivin–CRM1 interaction. Of note, very high tweezer concentrations (100–200 µM) also weakened GST-CRM1 binding to GSH-Sepharose beads, most likely by low-affinity binding to the GST protein.
All pull-down assays were performed at room temperature in pull-down buffer (PBS, pH 7.4, 1 mM DTT, 0.02 Triton X-100). GST fusion proteins were immobilized on 50 μL GSH-coated Sepharose 4B beads from GE Healthcare. The beads were prior equilibrated and blocked with 500 μL pull-down blocking buffer (PBS, pH 7.4, 1 (w/v) BSA, 1 mM DTT, 0.02 (v/v) Triton X-100) for 1 h to prevent unspecific binding.
For analysis of the effective inhibitory tweezer concentration, 200 μg 293T lysate with overexpressed Survivin142-HA was preincubated without ligand or with different concentrations (10 nM to 200 μM) of unmodified tweezer TW, TW-ELTL, TW-ELTLGEFL, or TW-LFEEGLLT for 1 h and then mixed with 35 μg GST-CRM1, 55 μg RanQ69L, and 2 mM dGTP. GSH-beads were incubated with this protein mixture for 2 h under rotation. […]
Samples of input and beads taken during pull-down experiments were ran on 12.5 SDS gels and transferred onto 0.2 µM PVDF membranes (Amersham Hybond P 0.2) using a PerfectBlue™ tank electro blotter (Peqlab) at 350 mA for 150 min. […] Chemiluminescence was detected and imaged using the Pierce ECL Plus Western Blotting Substrate kit (Thermo Fisher Scientific) and Chemidoc system (Bio-Rad) or film processor Cawomat 2000 IR (CAWO). Western blots were analyzed by densitometric analysis with ImageJ version 1.52p (U.S. National Institutes of Health), measuring the mean gray intensity of protein bands. […]

A further assay addresses T2, Survivin120 (Homo sapiens, UniProt O15392).
T2 construct: the only published NMR structure originated from a truncated Survivin (aa 1-120) with improved solubility; GST with PreScission site (N); made in house; host or cells: Escherichia coli soluBL21
Nature of the assay: Reverse ITC titration (tweezer into Survivin120). Type of assay: binding. Particulars: tweezer added to constant Survivin. The method, then:
ITC was performed with a MicroCal iTC200 from Malvern Panalytical in PBS, pH 7.4 at 25 °C with molecular tweezers in the cell and Survivin120 in the titration syringe. The protein was dialyzed overnight at 4 °C against the PBS buffer. Ligands were dissolved in the respective dialysis buffer. Then, 300 µM TW were titrated with 300 µM Survivin120 WT or 321 µM Survivin120 K90/103T. Then, 100 µM TW-ELTL, TW-ELTLGEFL, or TW-LFEEGLLT was titrated with 1.2 mM Survivin120 WT or 2.5 mM Survivin120 K90/103T. For reverse titrations, either 33.3 or 34.4 µM Survivin120 in the cell was titrated with 5 mM TW or TW-ELTL in the syringe, respectively. All titrations were performed in PBS, pH 7.4 at 25 °C. Then, 1.5 μL injections were used with 120 s spacing time between injections. The injection rate was set to 0.5 µL/s and the reference power was 5 µcal/s. ITC thermograms were fitted to a one set of sites model with the software Origin (v7.0552) provided with the instrument. Heat of dilution was subtracted as constant from each data point.
Supplementary Figure SI8: Reverse ITC titrations. Titration of 33.3 μM (a) and 34,4 µM (b) Survivin120 in the cell with 5 mM unmodified tweezer TW (a) and TW-ELTL (b) in the syringe.
All titrations (n = 1) were performed in PBS, pH 7.4 at 25 °C. Top row: raw heating power over time subtracted by control heating power of Survivin120 titration into PBS. […]
(Isothermal titration calorimetry measures the heat released or taken up as one component is titrated into another.)

Details of assay [1]: method as in PMID 23750919. The following applies: read-out: KD, affinity toward lysine; cited from earlier work.

T1 sequence (O15392 whole entry, one chain of several): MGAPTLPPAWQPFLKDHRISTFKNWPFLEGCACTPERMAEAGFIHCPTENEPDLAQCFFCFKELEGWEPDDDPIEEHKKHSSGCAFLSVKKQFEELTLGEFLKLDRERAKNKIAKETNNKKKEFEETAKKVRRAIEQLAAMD
T2 sequence (O15392 1-120): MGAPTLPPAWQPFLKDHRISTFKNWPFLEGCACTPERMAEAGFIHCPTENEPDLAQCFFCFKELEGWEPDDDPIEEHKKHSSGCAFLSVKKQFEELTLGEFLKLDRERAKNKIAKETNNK

As usually defined, the Kd is the equilibrium constant for the complex coming apart. Consider `O=P(O)(O)Oc1c2c(c(OP(=O)(O)O)c3c1C1CC3c3cc4c(cc31)C1CC4c3ccccc31)C1CC2c2cc3c(cc21)C1CC3c2ccccc21` [TW, reference compound], for which the “concentration required to disrupt the Survivin–CRM1 complex” value on Survivin–CRM1 complex is 10 to 50 µM. In addition, the “tweezer molecules accommodated on the protein surface (kink at fold tweezer excess)” value at Survivin120 was 4–5. For the same compound, the Kd in assay [1] was 17 µM.
Regarding `CC(C)C[C@H](NC(=O)[C@@H](NC(=O)[C@H](CC(C)C)NC(=O)[C@H](CCC(=O)O)NC(=O)Cn1cc(CCOP(=O)(O)Oc2c3c(c(OP(=O)(O)O)c4c2[C@H]2C[C@@H]4c4cc5c(cc42)[C@H]2C[C@@H]5c4ccccc42)[C@H]2C[C@@H]3c3cc4c(cc32)[C@H]2C[C@@H]4c3ccccc32)nn1)[C@@H](C)O)C(=O)O` [TW-ELTL], at Survivin–CRM1 complex, the “concentration required to disrupt the Survivin–CRM1 complex” value lay within 10 to 50 µM. Further, the “tweezer molecules accommodated on the protein surface (kink at fold tweezer excess)” value on Survivin120 is on record as 4–5.
